# From ChEMBL document CHEMBL4043145, “Pyridine-pyrimidine amides that prevent HGF-induced epithelial scattering by two distinct mechanisms” (Bioorg Med Chem Lett, 2017)
# How the values were obtained:
# MFE-296 [1] = experiment: Induction of apoptosis in human MFE296 cells assessed as late apoptotic cells at 300 nM by 7-AAD/Annexin staining-based assay (reference value: 3.6 to 6.6%); format: functional
# PC-3 [2] = experiment: Induction of apoptosis in human p53-null PC3 cells assessed as early apoptotic cells at 1000 nM by 7-AAD/Annexin staining-based assay (reference value: 0.6 to 1.4%); format: functional
# MFE-280 [3] = experiment: Induction of apoptosis in human MFE280 cells assessed as nuclear debris at 1000 nM by 7-AAD/Annexin staining-based assay (reference value: 0.5 to 2.3%); format: functional
# MFE-280 [4] = experiment: Induction of apoptosis in human MFE280 cells assessed as viable cells at 300 nM by 7-AAD/Annexin staining-based assay (reference value: 84.9 to 87.7%); format: functional; conditions: read-out: Activity
# A2780 [5] = experiment: Induction of apoptosis in human A2780 cells assessed as viable cells at 1000 nM by 7-AAD/Annexin staining-based assay (reference value: 95 to 96.7%); format: functional; conditions: read-out: Activity
# PC-3 [6] = experiment: Induction of apoptosis in human p53-null PC3 cells assessed as late apoptotic cells at 300 nM by 7-AAD/Annexin staining-based assay (reference value: 0.4 to 1.6%); format: functional
# MCF7 [7] = experiment: Induction of apoptosis in human MCF7 cells assessed as late apoptotic cells at 300 nM by 7-AAD/Annexin staining-based assay (reference value: 1 to 2.1%); format: functional
# MFE-280 [8] = experiment: Induction of apoptosis in human MFE280 cells assessed as nuclear debris at 300 nM by 7-AAD/Annexin staining-based assay (reference value: 0.5 to 2.3%); format: functional
# MFE-296 [9] = experiment: Induction of apoptosis in human MFE296 cells assessed as late apoptotic cells at 1000 nM by 7-AAD/Annexin staining-based assay (reference value: 3.6 to 6.6%); format: functional
# MFE-296 [10] = experiment: Induction of apoptosis in human MFE296 cells assessed as viable cells at 100 nM by 7-AAD/Annexin staining-based assay (reference value: 90.9 to 94.4%); format: functional; conditions: read-out: Activity
# T47D [11] = experiment: Induction of apoptosis in human T47D cells assessed as early apoptotic cells at 100 nM by 7-AAD/Annexin staining-based assay (reference value: 1.6 to 4.3%); format: functional
# T47D [12] = experiment: Induction of apoptosis in human T47D cells assessed as nuclear debris at 100 nM by 7-AAD/Annexin staining-based assay (reference value: 0.2 to 7.7%); format: functional
# PC-3 [13] = experiment: Induction of apoptosis in human p53-null PC3 cells assessed as late apoptotic cells at 100 nM by 7-AAD/Annexin staining-based assay (reference value: 0.4 to 1.6%); format: functional
# T47D [14] = experiment: Induction of apoptosis in human T47D cells assessed as early apoptotic cells at 1000 nM by 7-AAD/Annexin staining-based assay (reference value: 1.6 to 4.3%); format: functional
# T47D [15] = experiment: Induction of apoptosis in human T47D cells assessed as late apoptotic cells at 100 nM by 7-AAD/Annexin staining-based assay (reference value: 3 to 13.4%); format: functional
# A2780 [16] = experiment: Induction of apoptosis in human A2780 cells assessed as viable cells at 100 nM by 7-AAD/Annexin staining-based assay (reference value: 95 to 96.7%); format: functional; conditions: read-out: Activity
# T47D [17] = experiment: Induction of apoptosis in human T47D cells assessed as nuclear debris at 1000 nM by 7-AAD/Annexin staining-based assay (reference value: 0.2 to 7.7%); format: functional
# MFE-296 [18] = experiment: Induction of apoptosis in human MFE296 cells assessed as viable cells at 1000 nM by 7-AAD/Annexin staining-based assay (reference value: 90.9 to 94.4%); format: functional; conditions: read-out: Activity
# MCF7 [19] = experiment: Induction of apoptosis in human MCF7 cells assessed as viable cells at 300 nM by 7-AAD/Annexin staining-based assay (reference value: 92.6 to 96.8%); format: functional; conditions: read-out: Activity
# MFE-280 [20] = experiment: Induction of apoptosis in human MFE280 cells assessed as nuclear debris at 100 nM by 7-AAD/Annexin staining-based assay (reference value: 0.5 to 2.3%); format: functional
# T47D [21] = experiment: Induction of apoptosis in human T47D cells assessed as nuclear debris at 300 nM by 7-AAD/Annexin staining-based assay (reference value: 0.2 to 7.7%); format: functional
# T47D [22] = experiment: Induction of apoptosis in human T47D cells assessed as late apoptotic cells at 300 nM by 7-AAD/Annexin staining-based assay (reference value: 3 to 13.4%); format: functional
# A2780 [23] = experiment: Induction of apoptosis in human A2780 cells assessed as nuclear debris at 300 nM by 7-AAD/Annexin staining-based assay (reference value: 0.3 to 1.1%); format: functional
# PC-3 [24] = experiment: Induction of apoptosis in human p53-null PC3 cells assessed as nuclear debris at 1000 nM by 7-AAD/Annexin staining-based assay (reference value: 0.1 to 0.5%); format: functional
# MCF7 [25] = experiment: Induction of apoptosis in human MCF7 cells assessed as early apoptotic cells at 300 nM by 7-AAD/Annexin staining-based assay (reference value: 2 to 2.7%); format: functional
# T47D [26] = experiment: Induction of apoptosis in human T47D cells assessed as viable cells at 100 nM by 7-AAD/Annexin staining-based assay (reference value: 74.5 to 94.5%); format: functional; conditions: read-out: Activity
# MCF7 [27] = experiment: Induction of apoptosis in human MCF7 cells assessed as early apoptotic cells at 100 nM by 7-AAD/Annexin staining-based assay (reference value: 2 to 2.7%); format: functional
# T47D [28] = experiment: Induction of apoptosis in human T47D cells assessed as early apoptotic cells at 300 nM by 7-AAD/Annexin staining-based assay (reference value: 1.6 to 4.3%); format: functional
# MFE-280 [29] = experiment: Induction of apoptosis in human MFE280 cells assessed as viable cells at 100 nM by 7-AAD/Annexin staining-based assay (reference value: 84.9 to 87.7%); format: functional; conditions: read-out: Activity
# [30] = Inhibition of bovine brain tubulin polymerization; parameters: species or system Bos taurus
# PC-3 [31] = experiment: Cell cycle arrest in human p53-null PC3 cells assessed as accumulation at S phase at 100 nM (reference value: 29.08 to 29.33%); format: functional
# PC-3 [32] = experiment: Cell cycle arrest in human p53-null PC3 cells assessed as accumulation at S phase at 300 nM (reference value: 29.08 to 29.33%); format: functional
# A2780 [33] = experiment: Cell cycle arrest in human A2780 cells assessed as accumulation at S phase at 1000 nM (reference value: 21.16 to 22.81%); format: functional
# MFE-280 [34] = experiment: Induction of apoptosis in human MFE280 cells assessed as late apoptotic cells at 300 nM by 7-AAD/Annexin staining-based assay (reference value: 6 to 7.4%); format: functional
# A2780 [35] = experiment: Cell cycle arrest in human A2780 cells assessed as accumulation at G2/M phase at 300 nM (reference value: 19.42 to 20.43%); format: functional
# A2780 [36] = experiment: Cell cycle arrest in human A2780 cells assessed as accumulation at S phase at 100 nM (reference value: 21.16 to 22.81%); format: functional
SMILES,Activity (MFE-296 [1]),Activity (PC-3 [2]),Activity (MFE-280 [3]),viability at 0.3 µM (MFE-280 [4]),viability at 1 µM (A2780 [5]),Activity (PC-3 [6]),Activity (MCF7 [7]),Activity (MFE-280 [8]),Activity (MFE-296 [9]),viability at 0.1 µM (MFE-296 [10]),Activity (T47D [11]),Activity (T47D [12]),Activity (PC-3 [13]),Activity (T47D [14]),Activity (T47D [15]),viability at 0.1 µM (A2780 [16]),Activity (T47D [17]),viability at 1 µM (MFE-296 [18]),viability at 0.3 µM (MCF7 [19]),Activity (MFE-280 [20]),also measured
CN[C@@H]1C[C@H]2O[C@@](C)([C@@H]1OC)n1c3ccccc3c3c4c(c5c6ccccc6n2c5c31)C(=O)NC4 [STAUROSPORINE],24.4%,1.3%,3.1%,57%,57.8%,0.2%,7.9%,0.9%,60.3%,83.6%,2.5%,0.1%,0.7%,6.2%,2.4%,90.5%,0.6%,20.2%,83.6%,1.1%,Activity (T47D [21]): 0.4%; Activity (T47D [22]): 3.5%; Activity (A2780 [23]): 1%; Activity (PC-3 [24]): 0.2%; Activity (MCF7 [25]): 7.4%; viability at 0.1 µM (T47D [26]): 95%; Activity (MCF7 [27]): 3.4%; Activity (T47D [28]): 5.5%; viability at 0.1 µM (MFE-280 [29]): 51.1%
O=C(Nc1ccc(-c2cccc(Cl)c2)cn1)c1cncnc1,8.2%,1.3%,0.7%,84.4%,90%,0.8%,3.1%,0.7%,9.1%,90.9%,5.1%,0.2%,0.4%,12%,2.3%,92.7%,0.6%,84.3%,92.4%,0.6%,IC50 [30]: 1.45 µM; Activity (PC-3 [31]): 22.12%; Activity (PC-3 [32]): 22.85%; Activity (A2780 [33]): 7.1%; Activity (T47D [21]): 0.3%; Activity (T47D [22]): 3.8%; Activity (A2780 [23]): 0.9%; Activity (MFE-280 [34]): 9.5%; Activity (A2780 [35]): 30.36%; Activity (A2780 [36]): 18.92%; Activity (PC-3 [24]): 0.5%; Activity (MCF7 [25]): 4.1%; viability at 0.1 µM (T47D [26]): 92.4%; Activity (MCF7 [27]): 3.3%; Activity (T47D [28]): 9.5%; viability at 0.1 µM (MFE-280 [29]): 86.2%
